Experimental data from patent US10292997B2, “Compositions and methods for stimulating wound healing” (priority 2011, dated 2019).

Test system: full thickness skin wounds
Experiment: Wound closure rate of excised full thickness skin wounds treated with gel formulations
Assay type: in vivo, Hartley-derived albino guinea pigs

## Insulin: Insulin alone as control; non-steroidal anabolic hormone, vehicle not stated in the table
Day of maximum closure rate
  Peak Closure Day: 3.0 days
Day on which 50% wound closure is reached, gel about 1 cc/cm^2, dressing changed every 48 hours
  Closure % (day) 50%: 5.0 days
Wound closure reached on the peak closure day
  % Closure at Peak Closure Day: 30%
